Data from patent US8192962B2, “Processes for detecting toxic substances” (Daikin Industries, Ltd., priority 2001, dated 2012).

Tested on: Energy system protein genes
Assay: DNA chip mRNA expression in yeast, energy system protein genes (Table 4)
Assay type: cell-based, Saccharomyces cerevisiae S288C
Method in brief: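 First, S288C yeast grown in YPD at 25° C. are dosed in log phase with one toxicant (growth-inhibiting, not lethal) for 2 h. Next, total RNA is extracted and poly(A) mRNA isolated and reverse-transcribed with Cy3/Cy5-dUTP. Finally, whole-genome chip fluorescence is read relative to unexposed cells.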

## Cl[C@H]1[C@H](Cl)[C@@H](Cl)[C@@H](Cl)[C@H](Cl)[C@H]1Cl [(7), γ-hexachlorocyclohexane]
Yeast gene YJR009C
  The level of expressed mRNA in the presence of chemical substance/The level of expressed mRNA in the absence of chemical substance: 1.6
Yeast gene YJR048W
  The level of expressed mRNA in the presence of chemical substance/The level of expressed mRNA in the absence of chemical substance: 0.3
Yeast gene YJR121W, cells incubated two hours with the chemical substance
  The level of expressed mRNA in the presence of chemical substance/The level of expressed mRNA in the absence of chemical substance: 1.0
Yeast gene YJR155W
  The level of expressed mRNA in the presence of chemical substance/The level of expressed mRNA in the absence of chemical substance: 1.7
Yeast gene YKL016C, cells incubated two hours with the chemical substance
  The level of expressed mRNA in the presence of chemical substance/The level of expressed mRNA in the absence of chemical substance: 1.5
Yeast gene YKL060C, cells incubated two hours with the chemical substance
  The level of expressed mRNA in the presence of chemical substance/The level of expressed mRNA in the absence of chemical substance: 1.2
Yeast gene YKL141W, cells incubated two hours with the chemical substance
  The level of expressed mRNA in the presence of chemical substance/The level of expressed mRNA in the absence of chemical substance: 0.5
Yeast gene YKL148C, cells incubated two hours with the chemical substance
  The level of expressed mRNA in the presence of chemical substance/The level of expressed mRNA in the absence of chemical substance: 0.6
Yeast gene YKR009C, cells incubated two hours with the chemical substance
  The level of expressed mRNA in the presence of chemical substance/The level of expressed mRNA in the absence of chemical substance: 1.0
Yeast gene YKR058W, cells incubated two hours with the chemical substance, 25° C., YPD medium
  The level of expressed mRNA in the presence of chemical substance/The level of expressed mRNA in the absence of chemical substance: 1.4
Yeast gene YKR097W
  The level of expressed mRNA in the presence of chemical substance/The level of expressed mRNA in the absence of chemical substance: 3.7
Yeast gene YLL041C, cells incubated two hours with the chemical substance
  The level of expressed mRNA in the presence of chemical substance/The level of expressed mRNA in the absence of chemical substance: 0.3
Yeast gene YLR038C, cells incubated two hours with the chemical substance
  The level of expressed mRNA in the presence of chemical substance/The level of expressed mRNA in the absence of chemical substance: 1.0
Yeast gene YLR044C, cells incubated two hours with the chemical substance
  The level of expressed mRNA in the presence of chemical substance/The level of expressed mRNA in the absence of chemical substance: 1.3
Yeast gene YLR134W, cells incubated two hours with the chemical substance
  The level of expressed mRNA in the presence of chemical substance/The level of expressed mRNA in the absence of chemical substance: 1.1
Yeast gene YLR258W, cells incubated two hours with the chemical substance
  The level of expressed mRNA in the presence of chemical substance/The level of expressed mRNA in the absence of chemical substance: 1.8
Yeast gene YLR284C, cells incubated two hours with the chemical substance
  The level of expressed mRNA in the presence of chemical substance/The level of expressed mRNA in the absence of chemical substance: 0.8
Yeast gene YLR295C, cells incubated two hours with the chemical substance, 25° C., YPD medium
  The level of expressed mRNA in the presence of chemical substance/The level of expressed mRNA in the absence of chemical substance: 1.1
Yeast gene YLR304C, cells incubated two hours with the chemical substance
  The level of expressed mRNA in the presence of chemical substance/The level of expressed mRNA in the absence of chemical substance: 0.6
Yeast gene YLR345W
  The level of expressed mRNA in the presence of chemical substance/The level of expressed mRNA in the absence of chemical substance: 1.2
Yeast gene YLR354C, cells incubated two hours with the chemical substance
  The level of expressed mRNA in the presence of chemical substance/The level of expressed mRNA in the absence of chemical substance: 1.1
Yeast gene YLR377C, cells incubated two hours with the chemical substance
  The level of expressed mRNA in the presence of chemical substance/The level of expressed mRNA in the absence of chemical substance: 0.9
Yeast gene YML087C
  The level of expressed mRNA in the presence of chemical substance/The level of expressed mRNA in the absence of chemical substance: 1.1
Yeast gene YML120C, cells incubated two hours with the chemical substance
  The level of expressed mRNA in the presence of chemical substance/The level of expressed mRNA in the absence of chemical substance: 0.8
Yeast gene YML129C, cells incubated two hours with the chemical substance
  The level of expressed mRNA in the presence of chemical substance/The level of expressed mRNA in the absence of chemical substance: 1.8
Yeast gene YMR073C, cells incubated two hours with the chemical substance
  The level of expressed mRNA in the presence of chemical substance/The level of expressed mRNA in the absence of chemical substance: 1.0
Yeast gene YMR118C
  The level of expressed mRNA in the presence of chemical substance/The level of expressed mRNA in the absence of chemical substance: 1.0
Yeast gene YMR205C, cells incubated two hours with the chemical substance
  The level of expressed mRNA in the presence of chemical substance/The level of expressed mRNA in the absence of chemical substance: 0.9
Yeast gene YMR261C, cells incubated two hours with the chemical substance
  The level of expressed mRNA in the presence of chemical substance/The level of expressed mRNA in the absence of chemical substance: 1.3
Yeast gene YMR267W, cells incubated two hours with the chemical substance, 25° C., YPD medium
  The level of expressed mRNA in the presence of chemical substance/The level of expressed mRNA in the absence of chemical substance: 1.2
Yeast gene YMR323W, cells incubated two hours with the chemical substance
  The level of expressed mRNA in the presence of chemical substance/The level of expressed mRNA in the absence of chemical substance: 1.1
Yeast gene YNL071W
  The level of expressed mRNA in the presence of chemical substance/The level of expressed mRNA in the absence of chemical substance: 1.4
Yeast gene YNL202W, cells incubated two hours with the chemical substance
  The level of expressed mRNA in the presence of chemical substance/The level of expressed mRNA in the absence of chemical substance: 0.9
Yeast gene YNL241C
  The level of expressed mRNA in the presence of chemical substance/The level of expressed mRNA in the absence of chemical substance: 3.2
Yeast gene YNL331C
  The level of expressed mRNA in the presence of chemical substance/The level of expressed mRNA in the absence of chemical substance: 1.9
Yeast gene YOL086C, cells incubated two hours with the chemical substance
  The level of expressed mRNA in the presence of chemical substance/The level of expressed mRNA in the absence of chemical substance: 1.9
Yeast gene YOL165C
  The level of expressed mRNA in the presence of chemical substance/The level of expressed mRNA in the absence of chemical substance: 1.4
Yeast gene YOR142W, cells incubated two hours with the chemical substance
  The level of expressed mRNA in the presence of chemical substance/The level of expressed mRNA in the absence of chemical substance: 1.0
Yeast gene YOR178C, cells incubated two hours with the chemical substance
  The level of expressed mRNA in the presence of chemical substance/The level of expressed mRNA in the absence of chemical substance: 0.9
Yeast gene YOR388C, cells incubated two hours with the chemical substance
  The level of expressed mRNA in the presence of chemical substance/The level of expressed mRNA in the absence of chemical substance: 1.0
Yeast gene YPL031C, cells incubated two hours with the chemical substance
  The level of expressed mRNA in the presence of chemical substance/The level of expressed mRNA in the absence of chemical substance: 1.6
Yeast gene YPL061W, cells incubated two hours with the chemical substance
  The level of expressed mRNA in the presence of chemical substance/The level of expressed mRNA in the absence of chemical substance: 0.5
Yeast gene YPL088W
  The level of expressed mRNA in the presence of chemical substance/The level of expressed mRNA in the absence of chemical substance: 3.7
Yeast gene YPL171C
  The level of expressed mRNA in the presence of chemical substance/The level of expressed mRNA in the absence of chemical substance: 1.7
Yeast gene YPL240C
  The level of expressed mRNA in the presence of chemical substance/The level of expressed mRNA in the absence of chemical substance: 1.4
Yeast gene YPL262W, cells incubated two hours with the chemical substance
  The level of expressed mRNA in the presence of chemical substance/The level of expressed mRNA in the absence of chemical substance: 1.3
Yeast gene YPL275W, cells incubated two hours with the chemical substance
  The level of expressed mRNA in the presence of chemical substance/The level of expressed mRNA in the absence of chemical substance: 1.1
Yeast gene YPL276W, cells incubated two hours with the chemical substance
  The level of expressed mRNA in the presence of chemical substance/The level of expressed mRNA in the absence of chemical substance: 1.2
Yeast gene YPR048W, cells incubated two hours with the chemical substance
  The level of expressed mRNA in the presence of chemical substance/The level of expressed mRNA in the absence of chemical substance: 0.9
Yeast gene YPR184W, cells incubated two hours with the chemical substance
  The level of expressed mRNA in the presence of chemical substance/The level of expressed mRNA in the absence of chemical substance: 1.3
